Measurements: patent publication US10479810B2, “Crystal form of tenofovir alafenamide salt, preparation method and use thereof” (SHANGHAI BEGREAT PHARMATECH, priority 2016, dated 2019)
Like-named read-outs stand apart in the source and are kept apart here.

Details: for TAF total degradation impurities %: mixtures with emtricitabine at weight ratio about 1:15, HPLC
Method: In this patent, TAF fumarate crystal form I (prepared according to the method of WO2013025788A1), TAF fumarate crystal form II, TAF fumarate crystal form A and TAF fumarate crystal form B and emtricitabine are compared. The mixture was mixed at a weight ratio of about 1:15, placed at 40° C. and a relative humidity of 75%, and placed open for 21 days. The degradation of TAF was analyzed by HPLC at 0 days and 21 day.

Molecule | chemical compatibility of TAF with emtricitabine (compared with TAF hemifumarate crystal form I in combination with emtricitabine) | TAF total degradation impurities % (0 day) [%] | TAF total degradation impurities % (21 day, 40° C., relative humidity 75%, placed open) [%]
CC(C)OC(=O)[C@H](C)N[P@](=O)(CO[C@H](C)Cn1cnc2c(N)ncnc21)Oc1ccccc1.O=C(O)/C=C/C(=O)O [TAF fumarate Form II, 9-[(R)-2-[[(S)-[[(S)-1-(isopropoxycarbonyl)ethyl]amino]phenoxyphosphinyl]methoxy]propyl]adenine fumarate] | significantly improve |  | 
Tenofovir alafenamide hemifumarate [TAF fumarate Form I] |  | 0.1 | 0.9
